According to patent EP0845210A1, “New herbicidal compositions” (RHONE-POULENC AGRICULTURE LTD., priority 1994, dated 1996):

Experiments:
Assay type in all cases: in vivo
[1] = tested on: Digitaria sanguinalis; experiment: Procedure A: pre-emergence glasshouse pot test, growth reduction assessed two weeks after treatment
Excerpt: (§1) Seed of the various species of broad-leaf or grass weeds were sown in unsterilised clay loam soil in 7 centimetre by 7 centimetre plastic plant pots. The pots were watered and allowed to drain. The soil surface was then sprayed with ranges of concentrations of either the individual herbicide or mixtures of two herbicides in various proportions, dissolved in a 50:50 by volume solution of acetone and water, using a track sprayer set to deliver the equivalent of 290 l/ha. All herbicides were used as unformulated technical materials except dimethenamid, which was used as the commercial formulation "Frontiere" (trade mark), a flowable containing 900g/l active ingredient; and alachlor, which was used as "Lasso" (trade mark), an emulsifiable concentrate formulation containing 480g/l active ingredient.
(§2) Treated pots were placed at random in four replicate blocks per treatment for each plant species. The pots were held, in a glasshouse, standing on moist capillary matting, under lights and with overhead watering twice daily.
(§3) Two weeks after treatment the percent reduction in plant growth, compared to an untreated control, was assessed.
(§4) Mean percent reduction in plant growth was calculated for each treatment. Dose/mean response was plotted on Log concentration/Probability graph paper, and lines fitted by eye. For herbicide mixtures a dose/response line for the first herbicide was drawn for each dose rate of the second herbicide and a dose/response line for the second herbicide was drawn for each dose rate of the first herbicide. The doses representing a 90% reduction in plant growth (LD90's) were read from these lines and plotted on graphs whose axes were dose rates of the two herbicides. The line joining these points is an Isobole i.e. a line joining points (mixtures) of equal activity, as described by P.M.L. Tammes, Neth. J. Plant Path. 70 (1964) : 73-80. A line was also drawn joining the LD90's of the individual components of the mixture. This line represents the theoretical isobole if the effect of the two components is additive i.e. there is no interaction between them. Isoboles falling below this line indicate synergy between the components while lines lying above it indicate antagonism.
(§5) In the tables that follow 'dose' represents the dose rate in grammes per hectare of the active ingredient used; and the figures for the weed control are percentages reduction in growth when compared with the untreated controls.

[2] = tested on: Echinochloa crus-galli; experiment: as above
Excerpt: as §1, §2, §3, §4, §5

[3] = tested on: Abutilon theophrasti; experiment: Procedure D: pre-emergence field trial (Volga, Brookings), visual assessment about 26 days after treatment
Procedure: (§6) The following experiments were carried out pre-emergence of the weed species. Compound A, formulated as a wettable dispersible granule as described in Example 1 herebelow (750g per kilogram) and each acetochlor (used as the commercially available formulation "Harness" (trade mark), an emulsifiable concentrate containing 960g of acetochlor per kilogram, and which also contains the safening agent flurazole, metolachlor (used as the commercially available formulation "Duelor" (trade mark), an emulsifiable concentrate emulsifiable concentrate containing 960g of metolachlor per kilogram), alachlor (used as the commercially available formulation "Lasso" (trade mark), an emulsifiable concentrate containing 480g of alachlor per kilogram) and dimethenamid (used as the commercially available formulation "Frontiere" (trade mark), a flowable containing 900g/l active ingerident) were dissolved in water and sprayed at a volume rate of 187 litres/hectare on various test plots (10 square meters in area) either alone or in mixtures. The soil was a clay-loam, with a pH of 7, the experiments being conducted in June in Volga, Brookings, U.S.A. The various weed and crop species were drill sown and the various compositions were applied on the same day after drilling. Three replicates were performed and the efficacy of the various mixtures were determined by visual assessment of the percentage phytotoxicity in comparison with an untreated control. Assessment was made about 26 days after treatment. In the Tables which follow the dose is expressed in grammes per hectare and the figures in brackets represent the expected results according to the Colby formula.

[4] = tested on: Helianthus annuus; experiment: as above
Procedure: as §6

[5] = tested on: Panicum miliaceum; experiment: as above
Procedure: as §6

[6] = tested on: maize (Zea mays); experiment: Procedure D: pre-emergence field trial (Volga, Brookings), crop phytotoxicity about 26 days after treatment
Procedure: as §6

[7] = tested on: Abutilon theophrasti; experiment: Procedure B: pre-emergence field trial (research farm in Brazil), visual assessment 36 or 40 days from sowing; settings: B 50 g/ha alone
Procedure: The experiments were carried out pre-emergence of the weed species at • (i) a research farm in Brazil with Compounds B and C (each formulated as a wettable powder) and metolachlor, (formulated as a suspension concentrate); and • (ii) in research farms in the Mid West corn belt of the United States with compound D (formulated as a wettable powder) and metolachlor (formulated as a suspension concentrate).
A solution of the two active ingredients (a.i.) was mixed for one hour and applied at a spray volume of 231 litres/hectare to a 3 metre by 5 metre test plot comprising the weed species which were sown 2 days earlier. 3 replicates were performed. A control plot was sprayed with a solution not containing test compound. Visual assessment of phytotoxicity was made after 36 or 40 days from sowing each weed species based on a comparison with the control plot.
The tables below show the observed percentage control of the weed species by each combination, with the figure in brackets representing the predicted value using the Limpel formula. The dose rates are in grammes per hectare. Table E1

[8] = acetochlor 480 g/ha alone (Harness, contains safener flurazole)

Structure (SMILES): CCOCN(C(=O)CCl)c1c(C)cccc1CC [Acetochlor, 2-chloro-N-ethoxymethyl-6'-ethylacet-o-toluidide, reference compound]
- percent reduction in plant growth ([1]; acetochlor 3.75 g/ha alone): 0%
- percent reduction in plant growth ([1]; acetochlor 7.5 g/ha alone): 0%
- percent reduction in plant growth ([1]; acetochlor 15 g/ha alone): 7.5%
- percent reduction in plant growth ([1]; acetochlor 30 g/ha alone): 32.5%
- percent reduction in plant growth ([1]; acetochlor 60 g/ha alone): 85%
- percent reduction in plant growth ([1]; acetochlor 120 g/ha alone): 100%
- percent reduction in plant growth ([1]; acetochlor 240 g/ha alone): 98.75%
- percent reduction in plant growth ([2]; acetochlor 3.75 g/ha alone): 12.5%
- percent reduction in plant growth ([2]; acetochlor 7.5 g/ha alone): 36.25%
- percent reduction in plant growth ([2]; acetochlor 15 g/ha alone): 55%
- percent reduction in plant growth ([2]; acetochlor 30 g/ha alone): 88.75%
- percent reduction in plant growth ([2]; acetochlor 60 g/ha alone): 98.75%
- percent reduction in plant growth ([2]; acetochlor 120 g/ha alone): 98.75%
- percent reduction in plant growth ([2]; acetochlor 240 g/ha alone): 100%
- percentage phytotoxicity [3, 8]: 35%
- percentage phytotoxicity [4, 8]: 10%
- percentage phytotoxicity [5, 8]: 72%
- percentage phytotoxicity [6, 8]: 0%

Structure (SMILES): CCc1cccc(CC)c1N(COC)C(=O)CCl [Alachlor, 2-chloro-2',6'-diethyl-N-methoxymethylacetanilide, reference compound]
- percent reduction in plant growth ([1]; alachlor 4 g/ha alone): 0%
- percent reduction in plant growth ([1]; alachlor 8 g/ha alone): 25%
- percent reduction in plant growth ([1]; alachlor 16 g/ha alone): 6.25%
- percent reduction in plant growth ([1]; alachlor 32 g/ha alone): 37.5%
- percent reduction in plant growth ([1]; alachlor 64 g/ha alone): 75%
- percent reduction in plant growth ([1]; alachlor 128 g/ha alone): 95%
- percent reduction in plant growth ([2]; alachlor 4 g/ha alone): 18.75%
- percent reduction in plant growth ([2]; alachlor 8 g/ha alone): 5%
- percent reduction in plant growth ([2]; alachlor 16 g/ha alone): 12.5%
- percent reduction in plant growth ([2]; alachlor 32 g/ha alone): 46.25%
- percent reduction in plant growth ([2]; alachlor 64 g/ha alone): 91.25%
- percent reduction in plant growth ([2]; alachlor 128 g/ha alone): 98.75%
- percentage phytotoxicity ([3]; alachlor 480 g/ha alone): 20%
- percentage phytotoxicity ([4]; alachlor 480 g/ha alone): 3%
- percentage phytotoxicity ([5]; alachlor 480 g/ha alone): 53%
- percentage phytotoxicity ([6]; alachlor 480 g/ha alone): 0%

Structure (SMILES): CS(=O)(=O)c1ccc(C(=O)c2cnoc2C2CC2)c(C(F)(F)F)c1 [Compound B, 5-cyclopropyl-4-(4-methylsulphonyl-2-trifluoromethyl)benzoylisoxazole]
- observed percentage control of the weed species [7]: 75%
